Test results reported in patent publication US20110166226A1, “PROCESS FOR OBTAINING AN EXTRACT RICH IN ROSMARINIC ACID (RA) FROM THE PLANT ORIGANUM VULGARE AND ITS USE FOR THE TREATMENT OF DIABETES” (ACEF S/A, priority 2008, published 2011).

Assays:
Assay type in all cases: in vivo, rat
normal rats = experiment: Glycemic level in normal rats
[1] = tested on: diabetic rats induced by alloxan; experiment: Glycemia monitored for 4 h (60, 120 and 240 minutes) in diabetic rats, chlorpropamide as positive control (FIG. 8); settings: 25 mg/kg v.o., chlorpropamide 40 mg/kg as positive control (FIG. 8)
Experimental: FIG. 8—Graphic of the variation in plasmatic levels of glycemia (mg/dL), observed in the different experimental groups: Diabetic treated with hydroalcoholic extract (DTE, 250 mg/kg, v.o.), Diabetic treated with Rosmarinic Acid (DTRA, 25 mg/kg, v.o.), Diabetic treated with drugs in the market (Clorpropamida, 40 mg/kg), Diabetic Control (DC) and Normoglycemic Control (NC).
The induction of diabetes in animals was done by using alloxan. The animals stayed in fasting for 24 hours before receiving injections of alloxan, so that the animals became more susceptive to diabetes. After a pilot study, the dose of alloxan that was used was 40 mg/kg injected via intravenous in caudal vein. Alloxan was diluted in sodium citrate 0.05M pH 4.5 and the injected volume was 500. During the four hours after the injection, the animals received glucose solution 5% via oral (ad libidum) in order to prevent from seizures and death, what is common in hypoglycemia. On the first two days after diabetes induction, the animals received an insulin injection (100 μl—diluted 1/10) at every 24 hs via subcutaneous (FIG. 3). This procedure guarantees animals to survive during the disease acute phase enabling the study.
In FIG. 8, glycemic levels were monitored after 60, 120 and 240 minutes. […]

[2] = tested on: diabetic rats induced by alloxan; experiment: Hypoglycemiant activity in diabetic rats induced by alloxan, 15 days oral treatment then follow-up without treatment; settings: for plasmatic levels of glycemia: mean ± EPM
Experimental: The induction of diabetes in animals was done by using alloxan. The animals stayed in fasting for 24 hours before receiving injections of alloxan, so that the animals became more susceptive to diabetes. After a pilot study, the dose of alloxan that was used was 40 mg/kg injected via intravenous in caudal vein. Alloxan was diluted in sodium citrate 0.05M pH 4.5 and the injected volume was 500. During the four hours after the injection, the animals received glucose solution 5% via oral (ad libidum) in order to prevent from seizures and death, what is common in hypoglycemia. On the first two days after diabetes induction, the animals received an insulin injection (100 μl—diluted 1/10) at every 24 hs via subcutaneous (FIG. 3). This procedure guarantees animals to survive during the disease acute phase enabling the study. […] To use in the animals, it was employed corresponding doses, considering animals body mass, which is about 250 mg/kg of hydroalcoholic extract, 55 mL of infusion/rat and 25 mg/kg of RA. The animals received treatment via oral (v.o.), being maintained during a period of 40 days. The first 15 days evaluated by receiving treatment and the subsequent days with no treatment, so that it was possible to evaluate the potential to maintain the glycemic level. The obtained results are represented in the charts from FIGS. 4 to 7. As it can be observed in FIG. 4, the glycemic levels were monitored during 15 alternate days. After 15 days, the treatment was suspended (ST) and it was evaluated during 5, 10, 15 and 40 days. The data represent the mean±EPM, P<0.0001, when compared to the answer obtained for the groups DTE versus CD and CD versus CN (Anova followed by the Turkey-Kramer test). In FIG. 5, glycemic levels were monitored during 15 alternate days. After 15 days, the treatment was suspended (ST) and it was evaluated during 5, 10, 15 and 40 days. The data represent the mean±EPM, P<0.0001, when compared to the answer obtained for the groups DTAR versus CD and CD versus CN (Anova followed by the Turkey-Kramer test). In FIG. 6, glycemic levels were monitored during 15 alternate days. After 15 days, the treatment was suspended (ST) and it was evaluated during 5, 10, 15 and 40 days. The data represent the mean±EPM, P<0.0001, when compared to the answer obtained for the groups DTC versus CD and CD versus CN (Anova followed by the Turkey-Kramer test). In FIG. 7, glycemic levels were monitored during 15 alternate days. After 15 days, the treatment was suspended (ST) and it was evaluated during 5, 10, 15 and 40 days. The data represent the mean±EPM, P<0.0001, when compared to the answer obtained for the groups treated versus CD. (Anova followed by the Turkey-Kramer test).

In the case of `O=C(/C=C/c1ccc(O)c(O)c1)O[C@H](Cc1ccc(O)c(O)c1)C(=O)O` [RA, rosmarinic acid], the “effect on glycemic level in normal rats (result in words)” value (normal rats) is reported as “not reducing the glycemic level in normal rats”, the “effectiveness on glycemia monitored for 4 h (result in words)” value [1] is reported as “it was verified the effectiveness” and the “maintenance of the reduced glycemic level (result in words)” value ([2]; 25 mg/kg v.o., 15 days treatment, followed to 40 days without treatment (FIG. 5)) is reported as “in addition of reducing, it kept the glycemic level to the end of the experience”. The “plasmatic levels of glycemia” value ([2]; 5 ST: 5 days with no treatment after the 15 days of treatment) was 112.5 ± 5.00 mg/dL, the “plasmatic levels of glycemia” value ([2]; 10 ST: 10 days with no treatment after the 15 days of treatment) was 101.5 ± 19.13 mg/dL and the “plasmatic levels of glycemia” value ([2]; 15 ST: 15 days with no treatment after the 15 days of treatment) was 103.5 ± 10.78 mg/dL. The “plasmatic levels of glycemia” value ([2]; 40 ST: 40 days with no treatment after the 15 days of treatment) was 109.3 ± 9.87 mg/dL, the “effect on level of plasmatic glycemic in diabetic rats (result in words)” value ([2]; diabetic rats) was “reducing the level of plasmatic glycemic in diabetic rats” and the “plasmatic levels of glycemia” value ([2]; evaluated day 0, v.o.: infusion 55 mL/rat, extract 250 mg/kg, RA 25 mg/kg) was 362.6 ± 101.52 mg/dL. For the same molecule, the “plasmatic levels of glycemia” value ([2]; evaluated day 1 of treatment, v.o.: infusion 55 mL/rat, extract 250 mg/kg, RA 25 mg/kg) was 136.6 ± 44.96 mg/dL, the “plasmatic levels of glycemia” value ([2]; evaluated day 3 of treatment, v.o.: infusion 55 mL/rat, extract 250 mg/kg, RA 25 mg/kg) was 114.0 ± 8.46 mg/dL and the “plasmatic levels of glycemia” value ([2]; evaluated day 5 of treatment, v.o.: infusion 55 mL/rat, extract 250 mg/kg, RA 25 mg/kg) was 71.5 ± 22.66 mg/dL. For the same molecule, the “plasmatic levels of glycemia” value ([2]; evaluated day 7 of treatment, v.o.: infusion 55 mL/rat, extract 250 mg/kg, RA 25 mg/kg) was 124.5 ± 27.75 mg/dL, the “plasmatic levels of glycemia” value ([2]; evaluated day 9 of treatment, v.o.: infusion 55 mL/rat, extract 250 mg/kg, RA 25 mg/kg) was 100.1 ± 12.31 mg/dL and the “plasmatic levels of glycemia” value ([2]; evaluated day 11 of treatment, v.o.: infusion 55 mL/rat, extract 250 mg/kg, RA 25 mg/kg) was 108.0 ± 13.31 mg/dL. For the same molecule, the “plasmatic levels of glycemia” value ([2]; evaluated day 13 of treatment, v.o.: infusion 55 mL/rat, extract 250 mg/kg, RA 25 mg/kg) was 92.1 ± 16.89 mg/dL and the “plasmatic levels of glycemia” value ([2]; evaluated day 15 of treatment, v.o.: infusion 55 mL/rat, extract 250 mg/kg, RA 25 mg/kg) was 102.0 ± 12.60 mg/dL.
